Source: patent publication US20130005676A1 (UNIVERSITY OF ROCHESTER, priority 2009, published 2013)
“Also recorded” adds a separate entry of the source.

How the values were obtained:
[1] = test system: mice with inflammatory pain (CFA); experiment: Inflammatory pain (CFA in paw): mechanical allodynia (Von Frey) and thermal hyperalgesia; assay type: in vivo
From the text: Peripheral inflammation was induced by injection of Complete Freud Adjuvant (CFA, mixed with an equal amount of oil, […], Jackson labs) (Raghavendra et al., “Complete Freunds Adjuvant-Induced Peripheral Inflammation Evokes Glial Activation and Proinflammatory Cytokine Expression in the CNS,” Eur. J. Neurosci. 20:467-473 (2004), which is hereby incorporated by reference in its entirety). […] Neuropathic pain was induced by ligation of the sciatic nerve with 4.0 polypropylene suture in mice sedated with ketamine (60 mg/kg, i.p.) and xylazine (10 mg/kg, i.p.) (Bennett et al., “A Peripheral Mononeuropathy in Rat that Produces Disorders of Pain Sensation Like Those Seen in Man,” Pain 33:87-107 (1988); Martucci et al., “The Purinergic Antagonist PPADS Reduces Pain Related Behaviours and Interleukin-1 beta, Interleukin-6, iNOS and nNOS Overproduction in Central and Peripheral Nervous System After Peripheral Neuropathy in Mice,” Pain 137:81-95 (2008), which are hereby incorporated by reference in their entirety).
Mechanical allodynia was evaluated using repeated stimulations with a Von Frey filament exerting 0.02 grams of force onto the plantar surface (Colburn et al., “The Effect of Site and Type of Nerve Injury on Spinal Glial Activation and Neuropathic Pain Behavior,” Exp. Neurol. 157:289-304. (1999), which is hereby incorporated by reference in its entirety). The percentage of negative responses of a total of 10 trials was calculated for each foot. Thermal hyperalgesia was assessed using an Analgesymeter (Ugo Basile, Comerio, Italy) (Stein et al., “Intrinsic Mechanisms of Antinociception in Inflammation: Local Opioid Receptors and Beta-Endorphin,” J. Neurosci. 10:1292-1298 (1990), which is hereby incorporated by reference in its entirety). In short, a mobile radiant heat source was focused on the hind paw, and the paw withdrawal latencies were defined as the time taken by the mouse to remove its hind paw from the heat source (max 20 sec to avoid tissue damage). The paw withdrawal was repeated three times for each foot and the average calculated. To avoid conditioning to stimulation a 5 min rest period was interposed between each trial in both thermal and mechanical tests. Behavioral parameters were evaluated prior to intraplantar injection of CFA or nerve ligation (i.e. day 0), and again on day 3-4 in mice receiving the CFA injection, and at day 5-7 in mice with nerve ligation unless otherwise noted. Prior to injection of CCPA, saline, or acupuncture in the Zusanli point, the mice were placed in a restraining under light isoflurane anesthesia (˜1%). The total duration of anesthesia was ˜2 min and mice with inflammatory, neurogenic pain, and their controls were treated similarly. 2-chloro-N6-cyclopentyl-adenosine (CCPA, 0.1 mM, 20 μl) was injected in the Zusanli point ˜5 min before acupuncture. […] The needle was slowly rotated ˜2 time (˜20-30 sec) every 5 min for a total of 30 min during an acupuncture session. A microdialysis probe (MD-2211, Bioanalytical systems, West Lafayette, Ind.) was implanted 1-3 hrs prior to collection of microdialysis samples. The microdialysis probe was implanted in a distance of 0.4-0.6 mm from the Zusanli point. The microdialysis probe was perfused with Ringer's solution at a rate of 1 μl per minute. The microdialysates were collected on ice and the perfusate collected over a 30 min period (30 μl) was immediately frozen at −80° C. until HPLC analysis. Deoxycoformycin was administered in a dose of 50 mg/kg i.p. 30 min prior to acupuncture.

[2] = test system: inflammatory pain, rat formalin test; details: local injection; cited from earlier work
[3] = test system: mice with inflammatory or neuropathic pain; experiment: Statements covering both inflammatory and neuropathic pain models; assay type: in vivo; details: 50 mg/kg i.p. 30 min prior to 30 min acupuncture; vehicle + acupuncture ~[…]
Procedure: Peripheral inflammation was induced by injection of Complete Freud Adjuvant (CFA, mixed with an equal amount of oil, total volume 0.1 ml) in the plantar surface of the left hind paw of mice (25-30 g, Jackson labs) (Raghavendra et al., “Complete Freunds Adjuvant-Induced Peripheral Inflammation Evokes Glial Activation and Proinflammatory Cytokine Expression in the CNS,” Eur. J. Neurosci. 20:467-473 (2004), which is hereby incorporated by reference in its entirety). An equal amount of saline (0.1 ml) was injected in the right hind paw as control. […]
Mechanical allodynia was evaluated using repeated stimulations with a Von Frey filament exerting 0.02 grams of force onto the plantar surface (Colburn et al., “The Effect of Site and Type of Nerve Injury on Spinal Glial Activation and Neuropathic Pain Behavior,” Exp. Neurol. 157:289-304. (1999), which is hereby incorporated by reference in its entirety). The percentage of negative responses of a total of 10 trials was calculated for each foot. Thermal hyperalgesia was assessed using an Analgesymeter (Ugo Basile, Comerio, Italy) (Stein et al., “Intrinsic Mechanisms of Antinociception in Inflammation: Local Opioid Receptors and Beta-Endorphin,” J. Neurosci. 10:1292-1298 (1990), which is hereby incorporated by reference in its entirety). […] The paw withdrawal was repeated three times for each foot and the average calculated. […] Behavioral parameters were evaluated prior to intraplantar injection of CFA or nerve ligation (i.e. day 0), and again on day 3-4 in mice receiving the CFA injection, and at day 5-7 in mice with nerve ligation unless otherwise noted. […]

[4] = test system: mice with neuropathic pain; experiment: Neuropathic pain (sciatic nerve ligation): mechanical allodynia and thermal hyperalgesia; assay type: in vivo; details: WT mice, combined with acupuncture
Procedure: Peripheral inflammation was induced by injection of Complete Freud Adjuvant (CFA, mixed with an equal amount of oil, total volume 0.1 ml) in the plantar surface of the left hind paw of mice (25-30 g, Jackson labs) (Raghavendra et al., “Complete Freunds Adjuvant-Induced Peripheral Inflammation Evokes Glial Activation and Proinflammatory Cytokine Expression in the CNS,” Eur. J. Neurosci. 20:467-473 (2004), which is hereby incorporated by reference in its entirety). An equal amount of saline (0.1 ml) was injected in the right hind paw as control. Neuropathic pain was induced by ligation of the sciatic nerve with 4.0 polypropylene suture in mice sedated with ketamine (60 mg/kg, i.p.) and xylazine (10 mg/kg, i.p.) (Bennett et al., “A Peripheral Mononeuropathy in Rat that Produces Disorders of Pain Sensation Like Those Seen in Man,” Pain 33:87-107 (1988); Martucci et al., “The Purinergic Antagonist PPADS Reduces Pain Related Behaviours and Interleukin-1 beta, Interleukin-6, iNOS and nNOS Overproduction in Central and Peripheral Nervous System After Peripheral Neuropathy in Mice,” Pain 137:81-95 (2008), which are hereby incorporated by reference in their entirety).
Mechanical allodynia was evaluated using repeated stimulations with a Von Frey filament exerting 0.02 grams of force onto the plantar surface (Colburn et al., “The Effect of Site and Type of Nerve Injury on Spinal Glial Activation and Neuropathic Pain Behavior,” Exp. Neurol. 157:289-304. (1999), which is hereby incorporated by reference in its entirety). The percentage of negative responses of a total of 10 trials was calculated for each foot. Thermal hyperalgesia was assessed using an Analgesymeter (Ugo Basile, Comerio, Italy) (Stein et al., “Intrinsic Mechanisms of Antinociception in Inflammation: Local Opioid Receptors and Beta-Endorphin,” J. Neurosci. 10:1292-1298 (1990), which is hereby incorporated by reference in its entirety). In short, a mobile radiant heat source was focused on the hind paw, and the paw withdrawal latencies were defined as the time taken by the mouse to remove its hind paw from the heat source (max 20 sec to avoid tissue damage). The paw withdrawal was repeated three times for each foot and the average calculated. To avoid conditioning to stimulation a 5 min rest period was interposed between each trial in both thermal and mechanical tests. Behavioral parameters were evaluated prior to intraplantar injection of CFA or nerve ligation (i.e. day 0), and again on day 3-4 in mice receiving the CFA injection, and at day 5-7 in mice with nerve ligation unless otherwise noted. Prior to injection of CCPA, saline, or acupuncture in the Zusanli point, the mice were placed in a restraining under light isoflurane anesthesia (˜1%). […]

AMP deaminase = experiment: HPLC analysis of AMP degradation in muscle/subcutis sections from the Zusanli point; assay type: biochemical, mice; details: 200 μM, tissue incubated in 1 mM AMP for 45 min
Procedure: The analysis of enzymatic degradation of purines was based on sections (400 μm) of skeletal muscles with overlying subcutis harvested from tissue in the Zusanli point. Each section per well was placed into a 6-well plate with 2 ml (in a phosphate-free buffer (in mM: 2 CaCl2, 120 NaCl, 5 KCL, 10 Glucose, 20 HEPES, pH=7.3) and bubble with 100% O2 containing 1 mM AMP with or without 500 μM deoxycoformycin (Tocris Bioscience, UK). The samples were collected from each well at 0 and 45 min and stored at −80° C. for HPLC analysis. The analyses were carried out on an ESA reverse-phase H584 HPLC system (ESA Inc., USA) and an ESA model 526 UV detector (ESA Inc.) as previously described (Cui et al., “The Organic Cation Transporter-3 is a Pivotal Modulator of Neurodegeneration in the Nigrostriatal Dopaminergic Pathway,” Proc. Nat'l. Acad. Sci. USA 106:8043-8048 (2009); Volonte et al., “Development of an HPLC Method for Determination of Metabolic Compounds in Myocardial Tissue,” J. Pharm. Biomed. Anal. 35:647-653 (2004), which are hereby incorporated by reference in their entirety). Chromatographic separation was achieved by using a Lichrospher® 100 RP-18 column (5 μm, 250 mm×3 mm; Merck, Germany). […] Eluted purines were detected at 260 nm, and the chromatographic peaks were integrated using CoulArray software.

wild type mice = experiment: Touch sensitivity (Von Frey filaments) after injection in the Zusanli point of wild type mice; assay type: in vivo; details: 5 mM injected in Zusanli point, tested one hour after injection
Procedure: Using Von Frey Filaments, a baseline for pain threshold was established in the wild type. The mice were then injected with 5 mM of dibut 1-cAMP (db-cAMP) in the zunsanli accu-point. To ensure the proper spread of db cAMP, the mice were tested for pain one hour after injections and assessed for touch sensitivity. The experiment was repeated in the same animals 24 h later and yielded similar results.
Mechanical allodynia was evaluated using repeated stimulations with a Von Frey filament exerting 0.02 grams of force onto the plantar surface (Colburn et al., “The Effect of Site and Type of Nerve Injury on Spinal Glial Activation and Neuropathic Pain Behavior,” Exp. Neurol. 157:289-304. (1999), which is hereby incorporated by reference in its entirety). The percentage of negative responses of a total of 10 trials was calculated for each foot. Thermal hyperalgesia was assessed using an Analgesymeter (Ugo Basile, Comerio, Italy) (Stein et al., “Intrinsic Mechanisms of Antinociception in Inflammation: Local Opioid Receptors and Beta-Endorphin,” J. Neurosci. 10:1292-1298 (1990), which is hereby incorporated by reference in its entirety). […] The paw withdrawal was repeated three times for each foot and the average calculated. […]

## OC[C@H]1O[C@@H](n2cnc3c2NC=NC[C@H]3O)C[C@@H]1O [deoxycoformycin]
[1]; CFA, no acupuncture
  tactile or thermal sensitivity when not combined with acupuncture: does not alter the pain sensitivity; also recorded: no effect
[1]; WT mice, combined with acupuncture
  effect on duration of acupuncture pain relief, mechanical and thermal stimulation: prolonged
[2]
  pain relief on co-administration with an adenosine kinase inhibitor: augmented the pain relief
[3]
  duration of suppression of mechanical allodynia and thermal pain: ~3.0 h
[4]
  effect on duration of acupuncture pain relief, mechanical and thermal stimulation: prolonged
AMP deaminase
  reduction of AMP conversion to IMP: ~50%
AMP deaminase; listed as Deoxycoformycin
  reduction of AMP conversion to IMP: approximately 50%

## CCCC(=O)Nc1ncnc2c1ncn2[C@@H]1O[C@@H]2COP(=O)(O)O[C@H]2[C@H]1OC(=O)CCC [dibutyryl cAMP]
Wild type mice
  sensitivity to touch: increased transiently
